{
  "source": "patent US20050154035A1",
  "about": "“Methods of using zonisamide as an adjunctive therapy for partial seizures” (Eisai Co., Ltd., priority 2004, published 2005)",
  "key": {"[1]": {"assay": "Pharmacovigilance review of rhabdomyolysis / CPK elevation in zonisamide-treated patients (U.S. and Japan)", "conditions": "human, in vivo", "from_the_text": "The pharmacovigilance data that were collected, reviewed and analyzed provided the following information in respect of the incidence of rhabdomyolysis/CPK elevation in the zonisamide-treated patient population. To date, a total of 10 cases fulfill the criteria of potential rhabdomyolysis cases. These 10 cases were reviewed in detail for evaluation of possible safety signals. All 10 cases fulfill serious criteria. Of these 10 cases, seven (7) cases were reported as rhabdomyolysis and three (3) cases were reported as CPK increase.\nOf the seven (7) rhabdomyolysis cases, six (6) are verbatim cases from Dainippon and one (1) originates in the U.S. Of the seven (7) cases, three (3) were pediatric cases and four (4) were adult cases.\nOf the seven (7) rhabdomyolysis cases, two (2) cases have strong confounding factors, but the possibility of zonisamide involvement cannot be completely excluded. Two (2) cases have moderate confounding factors, and zonisamide involvement may be possible.\nOf the three (3) cases of CPK increase, one (1) is a verbatim report from Dainippon, and two (2) originated from the U.S. Of the three (3) cases, two are pediatric patients and one is an adult. Of these three (3) cases, two (2) recovered and the outcome of the third is unknown.\nOf the three (3) cases of CPK increase, one (1) case has strong confounding factors, but the possibility of zonisamide involvement cannot be completely excluded. One (1) case has weak confounding factors, and zonisamide involvement may be possible.\nEstimates of zonisamide exposure, based upon retail and mail order prescriptions, indicate that the number of unique patients taking zonisamide capsules in the U.S. is about 37,276 (total prescriptions per year/average number of prescriptions per patient per year less a calculated percentage decrease based on estimated annual dropouts) in the time between approval in 2000 and December 2002. Hospital patient data for that period, however, is not available and is not reflected in the estimates. Estimates of patient exposure for Japan indicate that the number of unique patients taking zonisamide is about 1,185,177 for time beginning with the approval in Japan through December 2002. Japanese data includes prescription and hospital patient data. Exposure from clinical trials are not included in the U.S. or Japanese exposure estimates. Based on these statistics, the estimated number of patients exposed to zonisamide in the U.S. and Japan is 1,222,453 unique patients. This is a rather conservative estimate, assuring that the number of patients actually exposed to zonisamide is unlikely to be higher than the estimate provided. Similarly, the incidences of rhabdomyolysis estimated herein are unlikely to be higher than calculated. […]"}, "T-type Ca^2+ currents": {"test_system": "T-type Ca^2+ currents", "conditions": "in vitro; cited from earlier work"}, "[2]": {"test_system": "GABA/benzodiazepine receptor ionophore complex", "conditions": "in vitro, cited from earlier work"}, "[3]": {"test_system": "cultured mouse spinal cord neurons", "conditions": "10-30 μg/mL, cited from earlier work"}, "rat hippocampal slices": {"test_system": "rat hippocampal slices", "conditions": "10-30 μg/mL; cited from earlier work"}, "[4]": {"test_system": "dopaminergic and serotonergic neurotransmission", "conditions": "in vivo microdialysis; cited from earlier work"}, "[5]": {"conditions": "in vivo; cited from earlier work"}},
  "data": [
    {"smiles": "NS(=O)(=O)Cc1noc2ccccc12", "note": "[zonisamide, 1,2-benzisoxazole-3-methanesulfonamide]", "values": [
      {"measurement": "CPK increase cases with no or only weak confounding factors", "setting": "[1]", "value": 2, "unit": "cases"},
      {"measurement": "rhabdomyolysis cases with no or only weak confounding factors", "setting": "[1]", "value": 3, "unit": "cases"},
      {"measurement": "time from initiation of zonisamide treatment to development of CPK increase", "setting": "[1]", "value": "two (2) days and six (6) weeks"},
      {"measurement": "time from initiation of zonisamide treatment to development of rhabdomyolysis", "setting": "[1]", "value": "two (2) weeks and nine (9) years"},
      {"measurement": "effect on voltage-dependent, transient inward currents (T-type Ca2+ currents)", "setting": "T-type Ca^2+ currents", "value": "reduces voltage-dependent, transient inward currents"},
      {"measurement": "binding to the GABA/benzodiazepine receptor ionophore complex", "setting": "[2]; allosteric fashion", "value": "binds to the GABA/benzodiazepine receptor ionophore complex"},
      {"measurement": "effect on chloride flux", "setting": "[2]", "value": "does not produce changes in chloride flux"},
      {"measurement": "effect on synaptically-driven electrical activity", "setting": "[3]", "value": "suppresses synaptically-driven electrical activity"},
      {"measurement": "effect on postsynaptic GABA or glutamate responses", "setting": "[3]; cultured mouse spinal cord neurons", "value": "without affecting"},
      {"measurement": "effect on neuronal or glial uptake of [3H]-GABA", "setting": "rat hippocampal slices", "value": "without affecting"},
      {"measurement": "effect on dopaminergic and serotonergic neurotransmission", "setting": "[4]", "value": "facilitates both dopaminergic and serotonergic neurotransmission"},
      {"measurement": "doses at which many of the side effects are more frequent", "setting": "[5]", "value": "≥ 300", "unit": "mg per day"}
    ]}
  ]
}
